This is an account of results in patent US20130142784A1 (The Board of Trustees of the University of Illinois, priority 2010, published 2013).

Data set [1] has as its system cells with HER2/ErbB2 amplification. To be noted: on average; cited from earlier work.
Another data set concerns SKBR3 cells. The experiment in a line: cell viability, CellTiter-Glo Luminescent assay, paclitaxel. The format is cell-based, human. To be noted: for IC50: Homo sapiens, TAXOL 24 hours; for cells survived: 0.1 μM, seven days. On the procedure: After seven days of treatment in a low dose of paclitaxel (TAXOL) (0.1 μM), only 25% of SKBR3-pBabe cells survived, while nearly 50% of SKBR3-FoxM1 cells survived (FIG. 4A).

Data set [2] concerns polymerized and soluble tubulin fractions of SKBR3-pBabe and SKBR3-FoxM1 expressing lines. The data set can be described thus: polymerized vs soluble tubulin fractionation and western blot. The format is cell-based, human. On the procedure: In addition, the possibility that FoxM1 induced altered microtubule dynamics was investigated. Paclitaxel has been known to stabilize tubulin, and thus the ratio of polymerized to soluble microtubule fractions was compared. Cell lysates of SKBR3-pBabe and SKBR3-FoxM1 expressing lines untreated or treated with paclitaxel were fractionated to obtain polymerized and soluble tubulin fractions. […] Briefly, cells were seeded at 80% confluency in 24-well plates, collected in hypotonic buffer (1 mM MgCl2, 2 mM EGTA, 0.5% Nonidet P-40, 20 mM Tris-HCl pH 6.8) and centrifuged for 10 minutes at room temperature (14,000 rpm). The supernatant was used as the soluble fraction while the pellet was used as the polymerized fraction.
Background: A western blot detects proteins with antibodies after separation by electrophoresis.

The test system of data set [3] is SKBR3-pBabe and FoxM1 cells. The data set can be described thus: surviving cells after ARF-peptide added to HERCEPTIN, paclitaxel or combination. It is filed as cell-based, human. On the procedure:
(§1) FIGS. 6A and 6B are graphs showing quantitative colony forming assay of parental or resistant SKBR3 and MDA-MB-453 cells treated with either ARF-peptide or mutant peptide (2 μM). […] Also shown below the graphs are images of representative wells of cells from such colony-forming assays.
The ability of the ARF-peptide to sensitize FoxM1-expressing cells to treatment was also investigated.

In data set [4] the test system is SKBR3 resistant cells. The data set can be described thus: colony forming assay, ARF-derived peptide and trastuzumab. It is filed as cell-based, human. The conditions noted are these: with trastuzumab; peptide 2 μM. On the procedure:
as §1
(§2) The cells were maintained in HERCEPTIN thereafter. […] Quantification was done using Adobe Photoshop.
(§3) Studies have shown that FoxM1 is inhibited by a small peptide that contains a 19-amino acid region of the p19ARF protein (residues 26 to 44) (SEQ ID NO:2). […] Treatment with the ARF-derived peptide and trastuzumab led to a 90% reduction in cell numbers in both SKBR3 and MDA-MB-453 resistant cells as measured by colony forming assays (following the same protocol as described above in Example 5) (FIG. 6A).

In data set [5] the test system is MDA-MB-453 resistant cells. The data set is described as above. The format is cell-based, human. The conditions noted are these: with trastuzumab; peptide 2 μM. On the procedure: as §1, §2, §3
For data set [6], the system named is hepatocellular carcinoma cells. The conditions noted are these: mouse; cited from earlier work.
The test system of data set [7] is SKBR3 resistant cells. The data set can be described thus: cell number after FoxM1 siRNA knockdown and HERCEPTIN
The format is cell-based, human. To be noted: in conjunction with HERCEPTIN
On the procedure:
The source of resistance in these lines was not uniform, as an increase in phosphorylated Akt was only observed in SKBR3 cells. FoxM1 levels in parental and resistant lines were assayed by western blot analysis. Extracts were prepared in lysis buffer containing 1 mM EDTA, 0.15M NaCl, 0.05M Tris-HCl pH 7.5, and 0.5% Triton-X. Phosphatate Inhibitor Cocktail Set II (Calbiochem) and protease inhibitor (Roche) were added before each experiment using the rabbit polyclonal antibody referenced above. Quantification was performed using Image J software (NIH).
Additionally, levels of cell cycle regulators, Polo-like Kinase 1 (1.5-fold) and Cyclin B1 (16.6-fold) were amplified in the resistant line as compared to the parental control line (FIG. 3B). GAPDH is used as a loading control to ensure that the same amount of RNA was added to each reaction. All bands are normalized to GAPDH bands from the same sample and then normalized values from parental and resistant cells can be compared. […] The control (5′ […] 3′, SEQ ID NO:12) and FoxM1 targeting siRNA (5′ […] 3′, SEQ ID NO:9) were both from Dharmacon, and purified using standard desalting methods. Prior to transfection, plates are washed and cells are placed in serum-free media. siRNA was added to a final concentration of 7.5 pm to each plate using Lipofectamine 2000 (Invitrogen) transfection. […]

Data set [8] concerns GATA-3 promoter. The data set can be described thus: ChIP assay, DNMT3b binding. It is filed as cell-based, human. The conditions noted are these: compared with control siRNA. On the procedure:
(§4) The mouse GATA-3 promoter contains three FoxM1 consensus sequences within 2 kb of the transcriptional start site. Whether FoxM1 directly regulated GATA-3 at the RNA level was investigated using chromatin immunoprecipitation (ChIP) assay. Cells were fixed in 1% formaldehyde for 10 minutes to allow crosslinking and then quenched with […] glycine. For in vivo ChIP assays, single cell suspensions were generated using collagenase/hyaluronidase followed by fixing. Cells were collected and lysed in SDS lysis buffer (1% SDS, 10 mM EDTA, 50 mM Tris pH 8, protease and phosphatase inhibitors). Lysate was sonicated, pre-cleared, and incubated with antibodies against GFP (Clontech, JL-8), GATA-3 (Santa Cruz HG3-31), FoxM1 (Major et al., 2004, “Forkhead box M1B transcriptional activity requires binding of Cdk-cyclin complexes for phosphorylation-dependent recruitment of p300/CBP coactivators” Mol Cell Biol 24: 2649-61), DNMT3b (Imgenex 52A1018), or Rb (Cell Signaling, 4H1) followed by purification with Protein-A and Protein-G Sepharose beads in the presence of salmon sperm DNA (Upstate). Beads were washed and DNA extracted using a PCR purification kit (Qiagen). PCR products were visualized by gel electrophoresis or analyzed using SYBR Green (Bio-Rad), normalized to the IgG control (Santa Cruz Biotechnology).
DNMT3b has been specifically implicated in mammary tumor biology. […]

The subject of data set [9] is GATA-3 promoter. The data set can be described thus: ChIP assay, Rb binding. It is filed as cell-based, human. The conditions noted are these: compared with control siRNA. On the procedure:
as §4

[10] abbreviates: FoxM1-expressing cells, with HERCEPTIN and paclitaxel combination treatment.

One may read the IC50 as the concentration that gives 50% inhibition. High values mean weaker potency in that assay, low ones greater potency in that assay.

Ends that are not written are not given here.

In the case of `CC(=O)O[C@H]1C(=O)[C@@]2(C)[C@H]([C@H](OC(=O)c3ccccc3)[C@]3(O)C[C@H](OC(=O)[C@H](O)[C@@H](NC(=O)c4ccccc4)c4ccccc4)C(C)=C1C3(C)C)[C@]1(OC(C)=O)CO[C@@H]1C[C@@H]2O` [paclitaxel], the “higher dose required to produce the same effect” value in [1] is 100 fold. Besides, the IC50 with SKBR3 cells (SK-BR-3, SKBR3 cells transfected with FoxM1-specific siRNA 72 hours) came out at 10 nM; in the data set with SKBR3 cells (SK-BR-3, SKBR3 cells transfected with control siRNA 72 hours), 60 nM. Also, the cells survived with SKBR3 cells (SKBR3-FoxM1 cells) is listed as roughly 50%; in the data set on SKBR3 cells (SKBR3-pBabe cells) it was 25%. Further, the “ratio for β-tubulin” value in [2] (FoxM1-expressing cells after paclitaxel treatment) was “did not show a significant change”. The “α- and β-tubulin distribution” value in data set [2] (SKBR3-pBabe cells after paclitaxel treatment) is reported as “dramatic shift towards the polymerized fraction”.
In the case of “ARF-derived peptide: cell-penetrating peptide inhibitor of FoxM1 containing a 19-amino acid region of the p19ARF protein (residues 26 to 44) (KFVRSRRPRTASCALAFVN; not fully specified; UniProt Q64364 26-44, looked up, fragment)”, in data set [3] (setting [10]), the cell killing result was “more than 97%” and the cells surviving entry is on record as “less than 3%”. For the same compound, the “cell number compared to mutant peptide” value in data set [3] (added to HERCEPTIN, paclitaxel, or combination treatment, three days) is “dramatic reduction in cell number”. Further, in [3] (pBabe cells, all treatments), the “cell killing at the same dosage compared to mutant peptide” value is reported as “greater cell killing”. The “reduction in cell numbers” value in the data set on SKBR3 resistant cells [4] was found to be 90%. The “reduction in cell numbers” value in data set [5] amounted to 90%. Further, the “proliferation and apoptosis of hepatocellular carcinoma cells in vivo” value in data set [6] was “reduce proliferation and induce apoptosis”.
As for “5′ GGACCACUUUCCCUACUUUUU 3′ (listed as RNA, chemistry not given here) [FoxM1 targeting siRNA]”, the “reduction in cell number” value with SKBR3 resistant cells [7] is on record as “more than 75%”. In addition, the “DNMT3b binding to GATA-3 promoter at −747 and −1431” value in the data set on GATA-3 promoter [8] is reported as “significantly decreased”. Besides, in the data set on GATA-3 promoter [9], the “Rb binding to GATA-3 promoter” value is on record as “could not bind to the GATA-3 promoter”.
